Measured values reported in US12129235B2, “TSPO binders” (The University Court of the University of Glasgow, priority 2018, dated 2024).

Tests used:
[1] = Observation after in vivo administration of ^18F-LW223
TSPO = TSPO (Rattus norvegicus, UniProt P16257); experiment: ^18F-LW223 PET blocking and displacement with PK11195 (1 mg/kg) in rats; assay type: in vivo; design: from tissue; host or cells: living Sprague-Dawley rats (brain, heart, lungs and other organs); details: for reduction of radiotracer binding post-blocking / VT post-blocking: PK11195 1 mg/kg; for displacement from target sites at equilibrium time point: PK11195 1 mg/kg after 60 min; for VT post-blocking: mean±SEM, n=3
Experimental: 13 PET scans were performed with ^18F-LW223 (mean injected radioactivity of 19.55±2.1 MBq). Scans were acquired following i.v. bolus injection of ^18F-LW223 via tail vein or femoral vein shunt (invasive kinetic modelling experiments with β-probe automatic blood sampler) in rats. Test-retest scans were obtained in three rats following i.v. bolus of the radiotracer, with two weeks interval between test and retest imaging sessions. […] These scans were compared to baseline scans where no PK11195 was used. For displacement studies, rats received i.v. administration of ^18F-LW223 and scanned continuously for 120 min. […] A male and female mouse were initially used to derive the dosimetry estimates for ^18F-LW223 over a 4 h dynamic scan, followed by additional mice in a further study (in a study with a mean injected radioactivity of 10.83±5.6 MBq).
All PET data were acquired using a preclinical PET/CT small animal scanner (nanoPET/CT, Mediso, Hungary). A CT scan (semi-circular full trajectory, maximum field of view, 480 projections, 50 kVp, 300 ms and 1:4 binning) was acquired for attenuation correction. Immediately following radiotracer administration, a 120 minutes emission scan was obtained using 3-dimentional 1:5 mode and re-binned as follows: 18×10 s; 2×30 s; 1×60 s; 2×2 min; 10×5 min; 6×10 min. PET images were reconstructed using Mediso's iterative Tera-Tomo 3D reconstruction algorithm and the following settings: 4 iterations, 6 subsets, full detector model, low regularization, spike filter on, voxel size 0.4 mm and 400-600 keV energy window. PET data were corrected for randoms, scatter and attenuation.
Image Processing and Data Analysis Reconstructed scans were imported into PMOD 3.8 software (PMOD Technologies, Switzerland). Volumes of interest (VOIs) were manually drawn around organs of interest. Time-activity curves (TACs) were generated and standardized uptake values (SUVs) calculated as concentration in the VOI divided by injected dose divided by animal weight. Kinetic modelling was performed using compartmental analysis (1-Tissue (1T) and 2-Tissue (2T) models) and graphical analysis (Logan plot and Ichise multivariate analysis) to estimate the volume of distribution (VT) in different tissues (Innis et al.; Logan; and Ichise et al.). Model fitting performance was evaluated using the Akaike information criterion (AIC) and the model selection criterion (MSC), where the preferred model had the lowest AIC and highest MSC. The selected identifiability criterion was the percentage standard error (% SE) of VT estimates. Kinetic modeling was also performed using graphical analysis to estimate the distribution volume ratio (DVR) in tissue regions and organs where the reference region VOI was the blood pool VOI in the left ventricle (Logan et al.).

Compound: CC[C@@H](C)N(C)C(=O)c1nc2ccccc2c(-c2ccccc2)c1C[18F] [^18F-LW223, (R)-(N-sec-Butyl)-3-[19-fluoro]-methyl-N-methyl-4-phenylquinoline-2-carboxamide]
- negative effects following administration in vivo [1]: no negative effects were apparent
- reduction on the SUV values post-blocking compared with baseline (TSPO; PK11195 1 mg/kg prior to tracer): 64-81%
- reduction of radiotracer binding post-blocking (TSPO; brain): 12%
- displacement from target sites at equilibrium time point (TSPO; brain): 29%
- reduction of radiotracer binding post-blocking (TSPO; heart): 35%
- displacement from target sites at equilibrium time point (TSPO; heart): 52%
- VT post-blocking (TSPO; heart): 6.19±0.38
- reduction of radiotracer binding post-blocking (TSPO; lungs): 56%
- displacement from target sites at equilibrium time point (TSPO; lungs): 40%
- VT post-blocking (TSPO; lungs): 2.27±0.07
